For the experiment, the target named is T1, hSWS1-SWSAP1 (human Shu complex) (Homo sapiens, UniProt Q6NVH7).
T1 construct: heterodimer co-expressed in High Five insect cells (baculovirus); SWSAP1 with TEV-cleavable N-terminal 6xHis tag (cleaved), SWS1 untagged; with Zinc finger SWIM domain-containing protein 7
T1 sequence (Q6NVH7 22-250): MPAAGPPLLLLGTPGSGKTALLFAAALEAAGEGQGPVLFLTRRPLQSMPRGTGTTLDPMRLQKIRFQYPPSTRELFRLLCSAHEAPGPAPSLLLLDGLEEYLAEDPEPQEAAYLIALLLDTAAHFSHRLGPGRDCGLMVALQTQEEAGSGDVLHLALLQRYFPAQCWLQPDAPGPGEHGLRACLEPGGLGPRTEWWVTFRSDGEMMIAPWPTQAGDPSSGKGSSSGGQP
T1 sequence (Q19AV6 1-140 partner): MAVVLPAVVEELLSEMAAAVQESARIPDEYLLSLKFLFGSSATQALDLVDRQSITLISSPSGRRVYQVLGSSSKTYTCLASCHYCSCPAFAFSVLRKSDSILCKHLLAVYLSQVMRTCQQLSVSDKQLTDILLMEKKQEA
Description: TNP-ATP displacement fluorescence, one-site competitive fit. Format: binding. As to conditions: read-out: Kd^ATP; 2 μM protein; 2.5 μM TNP-ATP; no DNA; 37 °C; competitive with TNP-ATP.

With `Nc1ncnc2c1ncn2[C@@H]1O[C@H](COP(=O)(O)OP(=O)(O)OP(=O)(O)O)[C@@H](O)[C@H]1O` [ATP], the Kd – broadly, a measure of binding affinity in units of concentration – came out at 72.3 µM.

For the origin of these results see article PMC12167799, “The role of human Shu complex in ATP-dependent regulation of RAD51 filaments during homologous recombination–associated DNA damage response” (The Journal of Biological Chemistry, 2025).
